In ChEMBL document CHEMBL1268897, “Discovery and optimization of adamantyl carbamate inhibitors of 11β-HSD1” (Bioorg Med Chem Lett, 2010):

Experiments:
in vitro [1] = conditions: rat, liver microsomes
Cytochrome P450 2D6 = Cytochrome P450 2D6 (Homo sapiens, UniProt P10635); test: Inhibition of CYP2D6; type: ADME
Cytochrome P450 2C9 = Cytochrome P450 2C9 (Homo sapiens, UniProt P11712); test: Inhibition of CYP2C9; type: ADME
Cytochrome P450 3A4 = Cytochrome P450 3A4 (Homo sapiens, UniProt P08684); test: Inhibition of CYP3A4; type: ADME
[2] = biological target: T1, 11-beta-hydroxysteroid dehydrogenase 1 (Homo sapiens, UniProt P28845); test: Inhibition of recombinant 11betaHSD1 expressed in CHO cells assessed as [3H]-cortisone to [3H]-cortisol by microscintillation plate reader in presence of plasma; type: cell-based
[3] = biological target: T1, 11-beta-hydroxysteroid dehydrogenase 1; test: Inhibition of 11betaHSD1 in human platelet assessed as [3H]-cortisone to [3H]-cortisol by microscintillation plate reader
[4] = Mean residence time in rat at 1 umol/kg, iv and 5 umol/kg, po; conditions: in vivo
Rattus norvegicus = test: Volume of distribution in rat at 1 umol/kg, iv and 5 umol/kg, po; conditions: in vivo
[5] = Oral bioavailability in rat at 1 umol/kg, iv and 5 umol/kg, po; conditions: in vivo
[6] = biological target: T2, 3 beta-hydroxysteroid dehydrogenase/Delta 5-->4-isomerase type 2 (Homo sapiens, UniProt P26439); test: Inhibition of 3betaHSD2
T2 sequence (P26439 whole entry): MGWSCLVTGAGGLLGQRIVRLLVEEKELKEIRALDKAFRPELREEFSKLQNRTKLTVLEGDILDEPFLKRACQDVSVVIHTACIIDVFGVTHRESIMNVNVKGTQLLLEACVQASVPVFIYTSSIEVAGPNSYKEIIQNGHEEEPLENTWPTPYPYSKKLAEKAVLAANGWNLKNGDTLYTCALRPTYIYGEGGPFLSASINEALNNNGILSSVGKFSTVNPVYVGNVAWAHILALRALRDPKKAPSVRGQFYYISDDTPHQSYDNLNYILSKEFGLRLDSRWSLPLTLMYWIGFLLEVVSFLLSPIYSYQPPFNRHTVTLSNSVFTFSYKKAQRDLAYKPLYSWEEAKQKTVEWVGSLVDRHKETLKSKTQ

[7] = biological target: T1, 11-beta-hydroxysteroid dehydrogenase 1; test: Inhibition of recombinant 11betaHSD1 expressed in CHO cells assessed as [3H]-cortisone to [3H]-cortisol by microscintillation plate reader; type: cell-based
[8] = Clearance in rat at 1 umol/kg, iv and 5 umol/kg, po; conditions: in vivo
[9] = biological target: 17-beta-hydroxysteroid dehydrogenase type 1 (Homo sapiens) (UniProt P14061); test: Inhibition of 17betaHSD1
[10] = biological target: T3, 11-beta-hydroxysteroid dehydrogenase type 2 (Homo sapiens, UniProt P80365); test: Inhibition of 11betaHSD2
T3 sequence (P80365 whole entry): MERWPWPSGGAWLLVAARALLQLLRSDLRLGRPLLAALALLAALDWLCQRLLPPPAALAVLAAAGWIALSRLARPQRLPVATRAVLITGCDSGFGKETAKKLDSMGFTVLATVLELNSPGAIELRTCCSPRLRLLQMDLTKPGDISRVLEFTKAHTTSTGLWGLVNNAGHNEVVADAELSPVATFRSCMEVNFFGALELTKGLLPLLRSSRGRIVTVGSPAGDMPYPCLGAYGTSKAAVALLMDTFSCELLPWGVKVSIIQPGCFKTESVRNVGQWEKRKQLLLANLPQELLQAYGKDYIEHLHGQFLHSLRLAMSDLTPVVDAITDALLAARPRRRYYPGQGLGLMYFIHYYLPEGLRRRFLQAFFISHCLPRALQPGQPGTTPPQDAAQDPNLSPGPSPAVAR

in vitro [11] = conditions: rat, hepatocytes
Description: Metabolic stability in rat hepatocytes assessed as hepatic clearance

[12] = AUC in rat at 1 umol/kg, iv and 5 umol/kg, po; conditions: plasma
Bile acid receptor = biological target: T4, Bile acid receptor (Homo sapiens, UniProt Q96RI1); test: Activity against FXR
T4 sequence (Q96RI1 whole entry): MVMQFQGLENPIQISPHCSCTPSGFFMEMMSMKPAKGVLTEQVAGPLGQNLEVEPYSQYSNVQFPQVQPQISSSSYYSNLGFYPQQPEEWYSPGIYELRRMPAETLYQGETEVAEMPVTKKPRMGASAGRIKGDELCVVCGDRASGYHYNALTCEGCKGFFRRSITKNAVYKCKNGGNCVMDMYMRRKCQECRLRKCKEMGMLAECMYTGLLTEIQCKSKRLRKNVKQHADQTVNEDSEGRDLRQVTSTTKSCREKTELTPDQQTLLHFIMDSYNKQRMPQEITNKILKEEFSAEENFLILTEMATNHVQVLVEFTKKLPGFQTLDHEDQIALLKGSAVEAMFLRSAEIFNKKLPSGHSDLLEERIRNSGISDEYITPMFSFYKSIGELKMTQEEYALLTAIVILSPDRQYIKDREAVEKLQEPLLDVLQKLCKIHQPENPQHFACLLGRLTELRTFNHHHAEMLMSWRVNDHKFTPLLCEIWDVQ

Glucocorticoid receptor = biological target: T5, Glucocorticoid receptor (Homo sapiens, UniProt P04150); test: Activity against GR
T5 sequence (P04150 whole entry): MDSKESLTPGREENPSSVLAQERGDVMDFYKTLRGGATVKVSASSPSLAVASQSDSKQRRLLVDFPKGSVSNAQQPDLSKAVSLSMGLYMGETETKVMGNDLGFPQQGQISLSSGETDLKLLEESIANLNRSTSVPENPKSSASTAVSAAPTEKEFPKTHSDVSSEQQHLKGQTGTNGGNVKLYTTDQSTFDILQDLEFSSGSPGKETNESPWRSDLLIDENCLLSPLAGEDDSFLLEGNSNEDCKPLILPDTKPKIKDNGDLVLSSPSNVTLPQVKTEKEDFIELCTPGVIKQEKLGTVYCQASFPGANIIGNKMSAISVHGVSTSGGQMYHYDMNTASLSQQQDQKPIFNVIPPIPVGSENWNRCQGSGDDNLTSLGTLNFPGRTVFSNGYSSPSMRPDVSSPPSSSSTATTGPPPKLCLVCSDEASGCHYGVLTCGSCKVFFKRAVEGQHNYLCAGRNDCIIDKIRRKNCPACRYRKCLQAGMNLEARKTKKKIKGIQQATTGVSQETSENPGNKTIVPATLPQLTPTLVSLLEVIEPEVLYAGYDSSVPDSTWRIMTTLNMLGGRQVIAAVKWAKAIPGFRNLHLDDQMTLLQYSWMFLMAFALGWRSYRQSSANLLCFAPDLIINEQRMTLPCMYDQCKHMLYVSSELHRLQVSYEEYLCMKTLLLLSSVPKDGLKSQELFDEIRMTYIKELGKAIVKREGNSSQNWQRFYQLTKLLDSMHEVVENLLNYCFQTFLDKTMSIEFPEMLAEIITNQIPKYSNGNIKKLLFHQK

Sequence of Cytochrome P450 2D6 (P10635 whole entry): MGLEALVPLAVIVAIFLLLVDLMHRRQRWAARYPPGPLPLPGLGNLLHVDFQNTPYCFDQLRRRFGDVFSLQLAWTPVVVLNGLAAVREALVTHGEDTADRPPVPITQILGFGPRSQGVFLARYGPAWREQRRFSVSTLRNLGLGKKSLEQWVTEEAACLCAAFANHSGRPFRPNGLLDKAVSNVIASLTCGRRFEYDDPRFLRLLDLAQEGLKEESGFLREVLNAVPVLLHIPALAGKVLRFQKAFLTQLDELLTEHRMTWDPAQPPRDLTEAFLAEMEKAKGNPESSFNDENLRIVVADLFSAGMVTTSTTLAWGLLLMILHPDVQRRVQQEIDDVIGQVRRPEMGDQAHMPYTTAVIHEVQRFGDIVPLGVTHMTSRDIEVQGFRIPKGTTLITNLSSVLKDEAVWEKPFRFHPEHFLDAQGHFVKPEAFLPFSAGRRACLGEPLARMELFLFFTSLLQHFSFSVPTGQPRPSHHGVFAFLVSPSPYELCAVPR
T1 sequence (P28845 whole entry): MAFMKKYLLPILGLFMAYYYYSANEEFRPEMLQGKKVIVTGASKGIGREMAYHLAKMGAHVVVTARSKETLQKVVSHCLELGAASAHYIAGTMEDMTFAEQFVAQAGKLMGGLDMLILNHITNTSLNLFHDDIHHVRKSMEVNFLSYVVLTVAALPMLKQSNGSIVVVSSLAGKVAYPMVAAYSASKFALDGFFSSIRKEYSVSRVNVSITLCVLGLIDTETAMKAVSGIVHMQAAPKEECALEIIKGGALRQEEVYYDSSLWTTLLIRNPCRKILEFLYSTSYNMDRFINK
Sequence of Cytochrome P450 2C9 (P11712 whole entry): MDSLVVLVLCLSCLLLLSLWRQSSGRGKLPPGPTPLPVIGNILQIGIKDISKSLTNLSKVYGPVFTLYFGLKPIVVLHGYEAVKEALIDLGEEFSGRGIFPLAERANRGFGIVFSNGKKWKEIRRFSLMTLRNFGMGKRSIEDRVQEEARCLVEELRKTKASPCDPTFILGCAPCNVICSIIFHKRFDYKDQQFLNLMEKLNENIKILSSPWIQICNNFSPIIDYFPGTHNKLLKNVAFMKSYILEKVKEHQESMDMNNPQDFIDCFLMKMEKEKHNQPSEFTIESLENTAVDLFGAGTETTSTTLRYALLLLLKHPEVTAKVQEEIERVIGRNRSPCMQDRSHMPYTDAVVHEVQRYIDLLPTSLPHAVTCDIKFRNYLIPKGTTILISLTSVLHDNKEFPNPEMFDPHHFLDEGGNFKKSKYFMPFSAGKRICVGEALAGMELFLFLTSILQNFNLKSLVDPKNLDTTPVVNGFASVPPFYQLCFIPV
Sequence of Cytochrome P450 3A4 (P08684 whole entry): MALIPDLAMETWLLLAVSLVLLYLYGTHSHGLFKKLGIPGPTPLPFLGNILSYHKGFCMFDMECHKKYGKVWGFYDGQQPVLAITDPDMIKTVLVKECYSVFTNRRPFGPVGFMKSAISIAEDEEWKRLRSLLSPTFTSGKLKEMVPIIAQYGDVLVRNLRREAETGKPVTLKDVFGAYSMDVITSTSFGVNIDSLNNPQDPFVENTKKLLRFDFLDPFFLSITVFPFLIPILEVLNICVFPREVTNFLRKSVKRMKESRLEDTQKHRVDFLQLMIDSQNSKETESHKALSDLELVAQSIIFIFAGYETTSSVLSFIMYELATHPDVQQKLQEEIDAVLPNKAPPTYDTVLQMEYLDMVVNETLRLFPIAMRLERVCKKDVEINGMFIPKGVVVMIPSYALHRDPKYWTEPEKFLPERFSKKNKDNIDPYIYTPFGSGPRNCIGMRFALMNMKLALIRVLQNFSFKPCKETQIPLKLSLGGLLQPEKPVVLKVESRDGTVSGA
Sequence of 17-beta-hydroxysteroid dehydrogenase type 1 (Homo sapiens) (P14061 whole entry, looked up): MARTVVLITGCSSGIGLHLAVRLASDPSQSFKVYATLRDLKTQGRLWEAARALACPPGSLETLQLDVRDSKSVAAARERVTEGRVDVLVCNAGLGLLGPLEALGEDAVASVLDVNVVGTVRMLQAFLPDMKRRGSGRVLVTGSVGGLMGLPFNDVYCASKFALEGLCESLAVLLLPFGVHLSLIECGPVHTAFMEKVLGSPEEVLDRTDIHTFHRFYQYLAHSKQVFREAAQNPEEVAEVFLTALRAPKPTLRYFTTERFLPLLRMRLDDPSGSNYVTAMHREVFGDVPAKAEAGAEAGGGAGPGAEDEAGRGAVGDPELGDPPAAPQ

SMILES	half-life (in vitro [1])	IC50 (Cytochrome P450 2D6)	IC50 (Cytochrome P450 2C9)	IC50 (Cytochrome P450 3A4)	IC50 [3]	IC50 [7]	also measured
O=C(OC1C2CC3CC(C2)CC1C3)N1CCCCC1 (centres undefined)	2 min	–	–	–	–	–	–
N#Cc1cccnc1N[C@@H]1CCN(C(=O)O[C@H]2C3CC4CC2C[C@](C(N)=O)(C4)C3)C1	> 60 min	> 30 µM	> 30 µM	17.1 µM	0.0004 µM	0.00087 µM	IC50 [2]: 0.0024 µM; MRT [4]: 18 min; Vd (Rattus norvegicus): 0.7 L/kg; bioavailability [5]: 42%; IC50 [6]: > 10 µM; clearance [8]: 42 mL/min/kg; IC50 [9]: > 10 µM; IC50 [10]: 7.35 µM; CLhep predicted (in vitro [11]): 41 mL/min/kg; AUC [12]: 0.398 µM·h
N#Cc1ccc(N[C@@H]2CCN(C(=O)O[C@H]3C4CC5CC3C[C@](C(N)=O)(C5)C4)C2)nc1	46 min	25 µM	23.1 µM	14.2 µM	0.0027 µM	0.0015 µM	IC50 [2]: 0.0032 µM; MRT [4]: 30 min; Vd (Rattus norvegicus): 2.2 L/kg; bioavailability [5]: 27%; IC50 [6]: > 10 µM; clearance [8]: 80 mL/min/kg; IC50 [9]: > 10 µM; IC50 [10]: 8.65 µM; CLhep predicted (in vitro [11]): 33 mL/min/kg; AUC [12]: 0.209 µM·h
CC(C)(C)CC(=O)N[C@@H]1CCN(C(=O)OC2C3CC4CC(C3)CC2C4)C1 (some centres undefined)	–	–	–	–	–	0.068 µM	–
CC(C)(C)OC(=O)N[C@@H]1CCN(C(=O)O[C@H]2C3CC4CC2C[C@](C(C)(C)O)(C4)C3)C1	–	–	–	–	> 0.1 µM	0.098 µM	–
CC(C)(C)OC(=O)N[C@@H]1CCN(C(=O)O[C@H]2C3CC4CC2C[C@](C(N)=O)(C4)C3)C1	30 min	> 30 µM	> 30 µM	> 30 µM	0.0075 µM	0.0034 µM	EC50 (Bile acid receptor): > 10 µM; EC50 (Glucocorticoid receptor): > 10 µM
CC(C)(C)OC(=O)N[C@H]1CCN(C(=O)O[C@H]2C3CC4CC2C[C@](C(N)=O)(C4)C3)C1	–	–	–	–	0.0176 µM	0.0044 µM	–
Cc1cc(N[C@@H]2CCN(C(=O)O[C@H]3C4CC5CC3C[C@](C(N)=O)(C5)C4)C2)nc(C)n1	–	–	–	–	> 0.1 µM	0.0207 µM	–
NC(=O)[C@]12CC3CC(C1)[C@@H](OC(=O)N1CC[C@@H](Nc4nnc(C(F)(F)F)s4)C1)C(C3)C2	–	–	–	–	> 0.1 µM	0.0213 µM	–
NC(=O)[C@]12CC3CC(C1)[C@@H](OC(=O)N1CC[C@@H](Nc4ncccc4C(F)(F)F)C1)C(C3)C2	30 min	–	9.4 µM	3.3 µM	–	–	–
NC(=O)[C@]12CC3CC(C1)[C@@H](OC(=O)N1CC[C@@H](Nc4ccc(C(F)(F)F)cn4)C1)C(C3)C2	47 min	11.6 µM	4.1 µM	7.2 µM	–	–	–
NC(=O)[C@]12CC3CC(C1)[C@H](OC(=O)N1CC[C@H](Nc4ncccc4C(F)(F)F)C1)C(C3)C2	11 min	> 30 µM	8 µM	8.5 µM	–	–	–

The next lines start with results.

half-life (in vitro [1])	IC50 (Cytochrome P450 2D6)	IC50 (Cytochrome P450 2C9)	IC50 (Cytochrome P450 3A4)	IC50 [3]	IC50 [7]	SMILES	also measured
> 60 min	11.6 µM	2.4 µM	10.3 µM	–	–	NC(=O)[C@]12CC3CC(C1)[C@@H](OC(=O)N1CC[C@H](Nc4ccc(C(F)(F)F)cn4)C1)C(C3)C2	–
25 min	> 30 µM	> 30 µM	18.6 µM	0.0076 µM	0.0026 µM	N#Cc1cccnc1N[C@H]1CCN(C(=O)O[C@H]2C3CC4CC2C[C@](C(N)=O)(C4)C3)C1	–
25 min	16.6 µM	20 µM	26.6 µM	0.0052 µM	0.0017 µM	N#Cc1ccc(N[C@H]2CCN(C(=O)O[C@H]3C4CC5CC3C[C@](C(N)=O)(C5)C4)C2)nc1	–
2 min	> 30 µM	11.4 µM	> 30 µM	–	–	CC(C)(C)OC(=O)N[C@@H]1CCN(C(=O)OC2C3CC4CC(C3)CC2C4)C1 (some centres undefined)	–
7 min	5.9 µM	2.4 µM	4.8 µM	–	–	NC(=O)[C@]12CC3CC(C1)[C@@H](OC(=O)N1CC[C@@H](Nc4cccc(C(F)(F)F)n4)C1)C(C3)C2	–
2 min	> 30 µM	22 µM	> 30 µM	–	–	OC1C2CC3CC(C2)CC1C3 (centres undefined) [ADAMANTAN-2-OL]	–
